From patent US20230122911A1, “FORMULATIONS OF ENZALUTAMIDE” (Astellas Pharma Inc., priority 2012, published 2023)

Key:
[1] = Relative bioavailability of amorphous drug and spray-dried dispersions in rats (Example 12); type: in vivo; conditions: oral gavage 20 mg/kg, mean ± standard deviation
Procedure: Five groups of jugular vein-cannulated CD® rats (n=6 per group) were dosed five enzalutamide formulations by oral gavage, at a dose of 20 mg/kg, in a volume of 2 ml/kg. Blood samples were obtained at 1, 3, 6, 12, 24, 36, 48, 60, and 72 hr post-dose.
The analytes, enzalutamide. MDPC0002, and MDPC0001 and internal standards (IS), N-^13CD3-enzalutamide, MDPC0002-^13CD3, and MDPC0001-^13CD3 were extracted from […], of rat plasma by a liquid-liquid extraction procedure. Internal standard working solution (25.0 µL) was added to all wells except the matrix blank. A 25.0 µL-volume of acetonitrile was added all matrix blank samples. After adding 200 µL of 5% sodium bicarbonate in water buffer solution, the plate was vortexed for approximately 10 seconds. A Tomtec Quadra 96-well pipettor was used to add […] of methyl tert-butyl ether (MTBE) to all wells, mixed, and approximately 1.00 mL of the organic layer was transferred to a clean 96-well plate. The samples were evaporated under heated nitrogen and reconstituted with 250 µL of 0.1% formic acid in methanol/water (40:60. v/v). The plate was covered and gently vortexed for approximately 10 seconds. The extracts were chromatographed under reverse phase conditions on an ACE 5 C18 HPLC 5 µm, 2.1 x 30 mm column. The compounds were detected and quantified by tandem mass spectrometry in positive ion mode on an MDS Sciex API 3000 equipped with a Turbo IONSPRAY® probe. Calibration curves were obtained by performing a linear regression (weighted ⅟x^2) of the data from the calibration standards.
Plasma enzalutamide concentration vs. time curves were prepared, and values for the following parameters were determined. Cmax max is the highest enzalutamide concentration observed for each rat. Tmax is the time that Cmax is first achieved. AUC0-72 is the area under the plasma enzalutamide concentration vs. time plot out to 72 hr post-dosing.

[2] = Microcentrifuge dissolution test in Model Fasted Duodenal Solution; type: physicochemical; conditions: for Enzalutamide Concentration / AUC90 (area under the curve at 90 minutes) / Cmax,90 (maximum drug concentration through 90 minutes): MFDS pH 6.5, dose 200 µg/ml; for AUC90 (area under the curve at 90 minutes) / Cmax,90 (maximum drug concentration through 90 minutes): Table 4.2; for Average enzalutamide concentration: Table 9.1
Source text: The in vitro dissolution test to evaluate enhanced drug concentration in aqueous solution can be conducted by (1) adding with agitation a sufficient quantity of control composition, that is, the crystalline enzalutamide alone, to the in vitro test medium, typically MFD or PBS solution, to determine the maximum concentration of the enzalutamide achieved under the conditions of the test: (2) adding with agitation a sufficient quantity of test composition (e.g., the enzalutamide and polymer) in an equivalent test medium, such that if all the enzalutamide dissolved, the theoretical concentration of enzalutamide would exceed the observed maximum concentration of enzalutamide by a factor of about 20; and (3) comparing the measured MDC and/or aqueous concentration versus time AUC90 of the test composition in the test medium with the maximum concentration, and/or the aqueous concentration versus time AUC90 of the control composition. In conducting such a dissolution test, the amount of test composition or control composition used is an amount such that if all of the enzalutamide dissolved, the test enzalutamide concentration would be at least about 20-fold that of the control enzalutamide concentration.
The concentration of dissolved enzalutamide is typically measured as a function of time by sampling the test medium and plotting enzalutamide concentration in the test medium vs. time so that the MDC can be ascertained. The MDC is taken to be the maximum value of dissolved enzalutamide measured over the duration of the test. The enzalutamide concentration versus time AUC90 is calculated by integrating the concentration versus time curve over any 90-minute time period between the time of introduction of the composition into the aqueous use environment (time equals zero) and 270 minutes following introduction to the use environment (time equals 270 minutes). Typically, when the composition reaches its MDC rapidly, in less than about 30 minutes, the time interval used to calculate AUC90 is from time equals zero to time equals 90 minutes. However, if the AUC90 over any 90-minute time period described above of a composition meets the criteria of compositions described herein, then the composition is included in compositions of this disclosure. The time period 270 min is chosen because of its physiological relevance. Drug absorption in mammals generally occurs in the small intestine, and the small intestinal transit time in humans is approximately 4.5 hr, or 270 min.
To avoid large enzalutamide particulates which would give an erroneous determination, the test solution is either filtered or centrifuged. “Dissolved enzalutamide” is typically taken as that material that either passes a 0.45 micron syringe filter or, alternatively, the material that remains in the supernatant following centrifugation. Filtration can be conducted using a 13 mm, 0.45 micron polyvinylidine difluoride syringe filter, such as the filter sold by Scientific Resources under the trademark TITAN™. Centrifugation is typically carried out in a polypropylene microcentrifuge tube by centrifuging at 13.000 G for 60 seconds. Other similar filtration or centrifugation methods can be employed and useful results obtained. For example, using other types of microfilters may yield values somewhat higher or lower (+/- 10-40%) than that obtained with the filter specified above but will still allow identification of dispersions. It is recognized that this definition of “dissolved enzalutamide” encompasses not only monomeric solvated enzalutamide molecules but also a wide range of species such as polymer/enzalutamide assemblies that have submicron dimensions such as enzalutamide aggregates, aggregates of mixtures of polymer and enzalutamide, micelles, polymeric micelles, colloidal particles, polymer/enzalutamide complexes, and other such enzalutamide-containing species that are present in the filtrate or supernatant in the specified dissolution test. […]

[3] = rat plasma, listed as Spray-dried amorphous drug
[4] = listed as Amorphous (spray-dried) enzalutamide

CNC(=O)c1ccc(N2C(=S)N(c3ccc(C#N)c(C(F)(F)F)c3)C(=O)C2(C)C)cc1F [Amorphous enzalutamide, 4-{3-[4-cyano-3-(trifluoromethyl)phenyl]-5,5-dimethyl-4-oxo-2-sulfanylideneimidazolidin-1-yl}-2-fluoro-N-methylbenzamide]
AUC 0-72 [1, 3]: 121000 ± 16400 ng·h/mL
Cmax [1, 3]: 7140 ± 970 ng/mL
Tmax [1, 3]: 2.55 ± 0.57 h
Enzalutamide Concentration ([2]; 0 min): 0.0 µg/mL
Enzalutamide Concentration ([2]; 4 min, listed as Amorphous (spray-dried) enzalutamide): 61 µg/mL
Enzalutamide Concentration ([2]; 10 min, listed as Amorphous (spray-dried) enzalutamide): 100 µg/mL
Enzalutamide Concentration ([2]; 20 min, listed as Amorphous (spray-dried) enzalutamide): 100 µg/mL
Enzalutamide Concentration ([2]; 40 min, listed as Amorphous (spray-dried) enzalutamide): 110 µg/mL
Enzalutamide Concentration ([2]; 90 min, listed as Amorphous (spray-dried) enzalutamide): 120 µg/mL
Enzalutamide Concentration ([2]; 1200 min, listed as Amorphous (spray-dried) enzalutamide): 30 µg/mL
AUC90 (area under the curve at 90 minutes) [2, 4]: 9,500 min*µg/mL
Cmax,90 (maximum drug concentration through 90 minutes) [2, 4]: 120000 ng/mL

CNC(=O)c1ccc(N2C(=S)N(c3ccc(C#N)c(C(F)(F)F)c3)C(=O)C2(C)C)cc1F [Control 1, 4-{3-[4-cyano-3-(trifluoromethyl)phenyl]-5,5-dimethyl-4-oxo-2-sulfanylideneimidazolidin-1-yl}-2-fluoro-N-methylbenzamide]
AUC(0-t) ([1]; CD, rat, plasma, po, 20 mg/kg, read-out: AUC 0-72): 72700 ± 18400 ng·h/mL
Cmax ([1]; rat plasma): 3530 ± 660 ng/mL
Tmax ([1]; rat plasma): 6.05 ± 0.92 h
Enzalutamide Concentration ([2]; 4 min): 1 µg/mL
Enzalutamide Concentration ([2]; 10 min): 3 µg/mL
Enzalutamide Concentration ([2]; 20 min): 5 µg/mL
Enzalutamide Concentration ([2]; 40 min): 6 µg/mL
Enzalutamide Concentration ([2]; 90 min): 7 µg/mL
Enzalutamide Concentration ([2]; 1200 min): 9 µg/mL
AUC90 (area under the curve at 90 minutes) [2]: 500 µg·min/mL
Cmax,90 (maximum drug concentration through 90 minutes) [2]: 7000 ng/mL
Average enzalutamide concentration ([2]; 0 min): 0.32 µg/mL
Average enzalutamide concentration ([2]; 4 min): 5.23 µg/mL
Average enzalutamide concentration ([2]; 10 min): 8.04 µg/mL
Average enzalutamide concentration ([2]; 20 min): 7.69 µg/mL
Average enzalutamide concentration ([2]; 40 min): 8.65 µg/mL
Average enzalutamide concentration ([2]; 90 min): 9.14 µg/mL
Average enzalutamide concentration ([2]; 1200 min): 12.12 µg/mL
AUC90 min ([2]; Table 9.2): 740 µg·min/mL
Cmax,90 min ([2]; Table 9.2): 10000 ng/mL
